Series [1] deals with BoNT/A induced paralysis. Conditions: cited from earlier work.
For series [2] the following is noted: in vivo; cited from earlier work.
Series [3] deals with cholinergic esterases. The class given is biochemical.
Series [4] addresses BChE (Equus caballus, UniProt P81908). The class given is biochemical, equine.
Series [5] deals with AChE purified from Electrophorus electricus (Electric eel) (Electrophorus electricus, UniProt O42275). The series can be described thus: biochemical. The class given is biochemical.
Chain of AChE purified from Electrophorus electricus (Electric eel) (O42275 24-633): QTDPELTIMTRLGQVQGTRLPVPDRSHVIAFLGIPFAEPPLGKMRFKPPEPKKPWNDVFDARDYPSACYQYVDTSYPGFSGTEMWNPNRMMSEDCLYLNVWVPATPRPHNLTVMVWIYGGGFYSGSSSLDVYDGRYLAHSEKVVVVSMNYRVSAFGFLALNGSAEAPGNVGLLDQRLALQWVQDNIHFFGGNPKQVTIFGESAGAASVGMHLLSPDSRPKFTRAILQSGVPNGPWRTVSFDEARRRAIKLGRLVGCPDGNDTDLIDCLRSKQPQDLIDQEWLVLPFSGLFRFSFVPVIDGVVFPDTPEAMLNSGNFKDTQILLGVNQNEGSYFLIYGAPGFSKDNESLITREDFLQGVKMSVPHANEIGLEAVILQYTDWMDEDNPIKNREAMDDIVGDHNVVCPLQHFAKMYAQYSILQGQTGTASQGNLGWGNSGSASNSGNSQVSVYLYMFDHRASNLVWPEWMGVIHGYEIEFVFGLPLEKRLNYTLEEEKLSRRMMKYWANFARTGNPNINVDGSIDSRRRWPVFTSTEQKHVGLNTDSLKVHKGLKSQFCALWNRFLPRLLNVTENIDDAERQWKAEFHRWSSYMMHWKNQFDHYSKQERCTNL
For series [6], the system named is AChE. The following applies: cited from earlier work.
Series [7] addresses AChE (Electrophorus electricus, UniProt O42275). The class given is biochemical.

SMILES strings stand for the structures.

Chain of AChE (Electrophorus electricus, UniProt O42275) (O42275 24-633): as above
Chain of BChE (P81908 whole entry): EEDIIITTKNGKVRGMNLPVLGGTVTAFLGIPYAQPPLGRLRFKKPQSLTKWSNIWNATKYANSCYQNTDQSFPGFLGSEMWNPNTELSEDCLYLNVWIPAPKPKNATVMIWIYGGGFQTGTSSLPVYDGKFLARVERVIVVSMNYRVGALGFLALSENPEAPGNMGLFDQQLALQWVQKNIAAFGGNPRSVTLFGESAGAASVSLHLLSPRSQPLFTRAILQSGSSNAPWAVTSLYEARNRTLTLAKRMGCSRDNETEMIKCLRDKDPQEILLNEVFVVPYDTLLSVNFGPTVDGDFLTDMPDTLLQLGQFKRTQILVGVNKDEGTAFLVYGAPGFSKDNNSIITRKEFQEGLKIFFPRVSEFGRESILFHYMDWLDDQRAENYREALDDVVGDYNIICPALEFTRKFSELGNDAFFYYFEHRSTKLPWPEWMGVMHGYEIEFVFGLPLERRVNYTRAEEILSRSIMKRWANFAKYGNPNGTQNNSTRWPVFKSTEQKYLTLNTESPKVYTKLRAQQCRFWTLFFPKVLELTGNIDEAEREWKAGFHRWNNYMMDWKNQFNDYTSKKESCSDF

For the compound `Nc1cncc(N)c1N` [3,4,5-triaminopyridine], the “paralysis reversal (in words)” value in series [1] is “paralysis reversal”. On to `Nc1ccncc1N` [3,4-DAP, 3,4-diaminopyridine], for which, in series [2], the “toxicity issues at high doses (in words)” value was “seizures”. Regarding `COC(=O)Nc1cnccc1N` [Compound 16], the “enzymatic generation of 3,4-DAP (in words)” value (“enzymatic generation” for short) in series [3] is “failed as pseudosubstrates to generate 3,4-DAP enzymatically”.

Consider `CCC(=O)Oc1ccc(COC(=O)Nc2ccncc2N)cc1` [Compound 6b], for which the “apparent kcat relative to natural substrate BCh” value in series [4] was “approximately 10^−4”. Besides, in series [5], the “binding to AChE more tightly than Km for ACh” value came to 100 fold and the “selectivity of AChE over BChE (in words)” value was “moderate selectivity”.

Take `CC(C)C(=O)Oc1ccc(COC(=O)Nc2ccncc2N)cc1` [Compound 6d]: in series [4], the “apparent kcat relative to natural substrate BCh” value is “approximately 10^−4”. Further, in series [5], the “binding to AChE more tightly than Km for ACh” value came out at 100 fold and the “selectivity of AChE over BChE (in words)” value was “moderate selectivity”.

In the case of `COC(=O)Nc1ccncc1NC(=O)OC` [Compound 17], the “enzymatic generation” value in series [3] is on record as “failed as pseudosubstrates to generate 3,4-DAP enzymatically”. For the compound `CC(=O)OCC[N+](C)(C)C` [ACh, acetylcholine], the Km (usually the concentration of substrate that gives half-maximal velocity) in series [6] was 400 µM. Turning to `CC(C)OC(=O)CCC(=O)Nc1ccncc1N` [Compound 32], the “half-life in mouse sera” value stood at 2.8 h. In addition, the “release of 3,4-DAP upon incubation with AChE (in words)” value in series [7] was “negligible release of 3,4-DAP”. In series [5], the affinity corresponds to a Ki of 3 µM and the “selectivity of AChE over BChE (in words)” value was “inhibited AChE selectively over BChE”.

As to `COC(=O)Nc1ccncc1N` [Compound 19], in series [3], the “enzymatic generation” value was “failed as pseudosubstrates to generate 3,4-DAP enzymatically”.

Take `CC(=O)Nc1ccncc1N` [Compound 21]: the “release of 3,4-DAP upon incubation with AChE (in words)” value in series [7] is given as “did not undergo internal release”. In addition, the “kinetic mechanism of inhibition of AChE” value in series [5] is recorded as “competitive inhibition”.

`Nc1ccncc1` [4-AP, 4-aminopyridine]: in series [2], the “toxicity issues at high doses (in words)” value was “seizures”. Turning to `C#CC[n+]1ccc(N)c(N)c1` [3,4-diamino-1-(prop-2-ynl)pyridinium], the “paralysis reversal (in words)” value in series [1] is listed as “paralysis reversal”.
